Experimental data reported in ChEMBL document CHEMBL4340543, “Synthesis and biological evaluation of new HIV-1 protease inhibitors with purine bases as P2-ligands” (Bioorg Med Chem Lett, 2019).

Target: Protease (Human immunodeficiency virus 1, UniProt Q9YQ12)
Assay: Inhibition of wild type HIV1 protease expressed in Escherichia coli using Arg-Glu (EDANS)-Ser-Gln-Asn-Tyr-Pro-Ile-Val-Gln-Lys(DABCYL)-Arg as substrate preincubated for 20 to 30 mins followed by substrate addition and measured for 10 mins by FRET assay

Protease, sequence (Q9YQ12 whole entry): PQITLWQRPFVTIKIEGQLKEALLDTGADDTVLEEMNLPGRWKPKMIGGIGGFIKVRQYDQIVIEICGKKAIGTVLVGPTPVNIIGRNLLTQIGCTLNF

| SMILES | IC50 [nM] |
| --- | --- |
| CC(C)CN(C[C@@H](O)[C@H](Cc1ccccc1)NC(=O)Cn1cnc2cnc(N)nc21)S(=O)(=O)c1ccc(N)cc1 | 6790 |
| CC(C)CN(C[C@@H](O)[C@H](Cc1ccccc1)NC(=O)Cn1cnc2c(N)ncnc21)S(=O)(=O)c1ccc([N+](=O)[O-])cc1 | 3580 |
| COc1nc(N)nc2c1ncn2CC(=O)N[C@@H](Cc1ccccc1)[C@H](O)CN(CC(C)C)S(=O)(=O)c1ccc([N+](=O)[O-])cc1 | 1730 |
| COc1ccc(S(=O)(=O)N(CC(C)C)C[C@@H](O)[C@H](Cc2ccccc2)NC(=O)Cn2cnc3c(C)ncnc32)cc1 | 42 |
| CC(C)CN(C[C@@H](O)[C@H](Cc1ccccc1)NC(=O)Cn1cnc2cncnc21)S(=O)(=O)c1ccc(N)cc1 | 570 |
| CC(C)CN(C[C@@H](O)[C@H](Cc1ccccc1)NC(=O)Cn1cnc2c(N)ncnc21)S(=O)(=O)c1ccc(N)cc1 | 1240 |
| CC(C)CN(C[C@@H](O)[C@H](Cc1ccccc1)NC(=O)Cn1cnc2cnc(N)nc21)S(=O)(=O)c1ccc([N+](=O)[O-])cc1 | 3680 |
| COc1ccc(S(=O)(=O)N(CC(C)C)C[C@@H](O)[C@H](Cc2ccccc2)NC(=O)Cn2cnc3cnc(N)nc32)cc1 | 360 |
| COc1nc(N)nc2c1ncn2CC(=O)N[C@@H](Cc1ccccc1)[C@H](O)CN(CC(C)C)S(=O)(=O)c1ccc(N)cc1 | 190 |
| CC(C)CN(C[C@@H](O)[C@H](Cc1ccccc1)NC(=O)Cn1cnc2c(Cl)ncnc21)S(=O)(=O)c1ccc([N+](=O)[O-])cc1 | 310 |
| COc1ncnc2c1ncn2CC(=O)N[C@@H](Cc1ccccc1)[C@H](O)CN(CC(C)C)S(=O)(=O)c1ccc([N+](=O)[O-])cc1 | 2600 |
| COc1ccc(S(=O)(=O)N(CC(C)C)C[C@@H](O)[C@H](Cc2ccccc2)NC(=O)Cn2cnc3c(Cl)ncnc32)cc1 | 43 |
| COc1ccc(S(=O)(=O)N(CC(C)C)C[C@@H](O)[C@H](Cc2ccccc2)NC(=O)Cn2cnc3c(O)nc(N)nc32)cc1 | 80 |
| Cc1ncnc2c1ncn2CC(=O)N[C@@H](Cc1ccccc1)[C@H](O)CN(CC(C)C)S(=O)(=O)c1ccc([N+](=O)[O-])cc1 | 2530 |
| Cc1nc2cncnc2n1CC(=O)N[C@@H](Cc1ccccc1)[C@H](O)CN(CC(C)C)S(=O)(=O)c1ccc([N+](=O)[O-])cc1 | 570 |
| CC(C)CN(C[C@@H](O)[C@H](Cc1ccccc1)NC(=O)Cn1cnc2c(Cl)ncnc21)S(=O)(=O)c1ccc(N)cc1 | 7020 |
| Cc1nc2cncnc2n1CC(=O)N[C@@H](Cc1ccccc1)[C@H](O)CN(CC(C)C)S(=O)(=O)c1ccc(N)cc1 | 640 |

| SMILES | IC50 [nM] |
| --- | --- |
| COc1ccc(S(=O)(=O)N(CC(C)C)C[C@@H](O)[C@H](Cc2ccccc2)NC(=O)Cn2cnc3c(N)ncnc32)cc1 | 1980 |
| CC(C)CN(C[C@@H](O)[C@H](Cc1ccccc1)NC(=O)Cn1cnc2c(Cl)nc(N)nc21)S(=O)(=O)c1ccc(N)cc1 | 11700 |
| COc1ccc(S(=O)(=O)N(CC(C)C)C[C@@H](O)[C@H](Cc2ccccc2)NC(=O)Cn2cnc3c(Cl)nc(N)nc32)cc1 | 570 |
| CC(C)CN(C[C@@H](O)[C@H](Cc1ccccc1)NC(=O)Cn1cnc2c(Cl)nc(N)nc21)S(=O)(=O)c1ccc([N+](=O)[O-])cc1 | 960 |
| COc1ccc(S(=O)(=O)N(CC(C)C)C[C@@H](O)[C@H](Cc2ccccc2)NC(=O)Cn2cnc3c(OC)ncnc32)cc1 | 180 |
| Cc1ncnc2c1ncn2CC(=O)N[C@@H](Cc1ccccc1)[C@H](O)CN(CC(C)C)S(=O)(=O)c1ccc(N)cc1 | 3760 |
| COc1ccc(S(=O)(=O)N(CC(C)C)C[C@@H](O)[C@H](Cc2ccccc2)NC(=O)Cn2c(C)nc3cncnc32)cc1 | 150 |
| COc1ccc(S(=O)(=O)N(CC(C)C)C[C@@H](O)[C@H](Cc2ccccc2)NC(=O)Cn2cnc3c(OC)nc(N)nc32)cc1 | 460 |
| COc1ccc(S(=O)(=O)N(CC(C)C)C[C@@H](O)[C@H](Cc2ccccc2)NC(=O)Cn2cnc3cncnc32)cc1 | 240 |
| COc1ccc(S(=O)(=O)N(CC(C)C)C[C@@H](O)[C@H](Cc2ccccc2)NC(=O)Cn2cnc3c(O)ncnc32)cc1 | 68 |
| COc1ncnc2c1ncn2CC(=O)N[C@@H](Cc1ccccc1)[C@H](O)CN(CC(C)C)S(=O)(=O)c1ccc(N)cc1 | 1510 |
| CC(C)CN(C[C@@H](O)[C@H](Cc1ccccc1)NC(=O)Cn1cnc2c(O)nc(N)nc21)S(=O)(=O)c1ccc([N+](=O)[O-])cc1 | 790 |
| CC(C)CN(C[C@@H](O)[C@H](Cc1ccccc1)NC(=O)Cn1cnc2c(O)ncnc21)S(=O)(=O)c1ccc([N+](=O)[O-])cc1 | 2430 |
| CC(C)CN(C[C@@H](O)[C@H](Cc1ccccc1)NC(=O)Cn1cnc2c(O)nc(N)nc21)S(=O)(=O)c1ccc(N)cc1 | 4730 |
| CC(C)CN(C[C@@H](O)[C@H](Cc1ccccc1)NC(=O)Cn1cnc2cncnc21)S(=O)(=O)c1ccc([N+](=O)[O-])cc1 | 2580 |
| CC(C)CN(C[C@@H](O)[C@H](Cc1ccccc1)NC(=O)Cn1cnc2c(O)ncnc21)S(=O)(=O)c1ccc(N)cc1 | 1810 |
